Laboratory results as given in patent publication US20260199327A1, “PHARMACEUTICAL COMBINATION AND PHARMACEUTICAL COMPOSITION FOR TREATING CANCER” (CSPC ZHONGQI PHARMACEUTICAL TECHNOLOGY (SHIJIAZHUANG) CO., …, priority 2022, published 2026).
pIC50: −log10 of the molar value. Structures can show the parent of a compound that is named as a salt. Where two headings read alike, the source gives them in different places. Marks after values point to notes of the source that are not given here.

Assays:
[1] = test system: Hep3B (human hepatocarcinoma cell line) xenograft; conditions: for Change Rate in Weight (%) / Number of Animals (Survived/Total): BALB/c Nude mice, gavage qd 16 days, palbociclib 50 mg/kg; for Change Rate in Weight (%) / TV(mm3) d16 / T/C d16 (%) (relative tumor volume proliferation rate) / TGI d16 (%) (tumor growth inhibition rate) / Tumor Weight / Tumor Weight Inhibition Rate (%) / Number of Animals (Survived/Total): compound of formula (B) 5 mg/kg, sorafenib tosylate 8 mg/kg; for growth of xenograft tumor (tumor volume) versus vehicle, in words / tumor growth (tumor weight) versus vehicle, in words: at the test dose; for TV(mm3) d16: d16, Mean ± SD; for TV(mm3) d16 / Tumor Weight: n = 6; for TV(mm3) d16 / T/C d16 (%) (relative tumor volume proliferation rate) / TGI d16 (%) (tumor growth inhibition rate) / Tumor Weight / Tumor Weight Inhibition Rate (%): palbociclib 50 mg/kg qd; for Tumor Weight / Tumor Weight Inhibition Rate (%): end of test; for Tumor Weight: Mean ± SD
Method: 36 BALB/c Nude mice, female, 18-20 g in body weight.
Compounds of formula (B), sorafenib tosylate, palbociclib.
Sorafenib tosylate/palbociclib: a solution of castor oil, anhydrous ethanol and ultrapure water in a volume ratio of 1:1:6.
In the solvent group, the solvents were administered at the same frequency and volume for 16 consecutive days.
4.3 Observation Criteria and Evaluation Criteria: Same as Example 2

[2] = patients taking sorafenib, N=2276; cited from earlier work
[3] = 638 patients, cited from earlier work
[4] = test system: Hep3B (human hepatocarcinoma cell line) xenograft; conditions: for growth of tumor (tumor weight) versus vehicle, in words / growth of xenograft tumor (tumor volume) versus vehicle, in words: at the test dose; for TV (mm^3) d14: d14, Mean ± SD; for TV (mm^3) d14 / Tumor Weight: n = 7; for TV (mm^3) d14 / TGI d14 (%) (tumor growth inhibition rate) / Tumor Weight / Tumor Weight Inhibition Rate (%) / T/C d14 (%) (relative tumor volume proliferation rate): palbociclib 50 mg/kg qd; for Tumor Weight / Tumor Weight Inhibition Rate (%): end of test; for Tumor Weight: Mean ± SD
Description: 42 NU/NU mouse, female, 42-48 days old, weighing 22-26 g.
Hep3B cells were resuscitated and passaged in vitro to the desired number of cells. The cells were counted under a microscope, and diluted with serum-free medium and matrix gel (1:1) to adjust the number of tumor cells to approximately 5×10^7 cells/mL. The cell suspension was placed in an ice bath.
Hep3B cell suspension was withdrawn with a sterile syringe for inoculation into subcutaneous tissue in the axilla of the forelimb of NU/NU mice, with a volume of 0.1 mL/per mice, containing approximately 5.0×10^6 tumor cells, to prepare NU/NU mice Hep3B xenogratf model.
In the vehicle group, the solvents were administered at the same frequency and volume for 14 consecutive days.
4.3 Observation Criteria and Evaluation Criteria • (1) General state observation: all animals were observed once a day during the test period and the abnormalities in various parts of the body and the behavior change situations were recorded. • (2) Body weight: all animals were weighed once before testing and the appropriate body weight of animals were selected for testing. Animals were weighed once a day at a fixed time after initiation of administration for weight monitoring, and body weight statistics were consistent with tumor volume statistics. • (3) Death and moribund: time of death was recorded for dead animals, moribund animals were observed more frequently, and time of death was determined. • (4) Tumor Evaluation
After animal grouping, tumor length and short diameters were measured twice per week. • (1) Tumor volume: V=½×a×b^2 • (2) Relative tumor volume:
[formula] • (3) Relative tumor volume proliferation rate:
[formula] • (4) Tumor growth inhibition rate:
[formula] • Note: V: Tumor volume • a: tumor length; b: tumor width; RTV: relative tumor volume; TVnd: tumor volume on day n; TV0d: tumor volume on day 0; RTVxnd: mean relative tumor volume on day n; TVXn: mean tumor volume on day n in the administrated group; TVX0: mean tumor volume on day 0 in the administrated group; TVMn: mean tumor volume on day n in the solvent (model) group; TVM0: mean tumor volume on day 0 in the solvent (model) group. • (5) Tumor weight
At the end of the test, the animals were sacrificed by cervical dislocation, and a tumor was stripped and weighed.
Data were processed using SPSS 19.0 statistical software. Repeated Measure process analyzed tumor volume changes between groups with multiple measurements over time. Multivariate process compared differences in tumor volume between groups at each measurement. Difference in tumor weight between groups was analyzed by LSD method of One-way ANOVA.

Huh-7 cells = test: Huh-7 tumor cell proliferation inhibition assay (CellTiter Glo); type: cell-based; conditions: Homo sapiens, 72 or 168 hours
Method: Huh-7 cell suspension was adjusted to 5×10^4/ml or 2×10^4/ml with DMEM+2 mM Glutamine+10% FBS medium. 100 μL of cell suspension was added per well to a 96-well cell culture plate, to give a final cell concentration of 5000 cells/well (72 hours) or 2000 cells/well (168 hours). The compound to be tested (compound of formula (B)) was dissolved in DMSO to give 10 mmol of stock solution. 200× final concentration of compound was prepared with stock solution and DMSO, and 3× serial gradient dilutions were prepared, then diluted 20-fold each with medium. Finally, 10 μL of the corresponding 10-fold solution was added per well for each cell, wherein each drug concentration was added in one well. […] After 72 or 168 hours of drug treatment, according to CTG instructions (CellTiter Glo), 100 μL of CTG solution that had been previously thawed and equilibrated to room temperature was added per well, mixed for 2 minutes using a microplate shaker, placed at room temperature for 10 minutes, and then chemiluminescent signal value was measured with EnSpire plate reader. Cell survival was calculated using formula: (Vsample−Vblank)/(Vvehicle control−Vblank)×100%, wherein Vsample is the reading of the drug treatment group, Vvehicle control is the average of the solvent control group, and Vblank is the average of the blank control wells. […]

FGFR4 = FGFR4 (Homo sapiens, UniProt P22455); test: FGFR4 kinase activity inhibition experiment (Caliper mobility shift assay); type: biochemical
Sequence of FGFR4 (P22455 22-802): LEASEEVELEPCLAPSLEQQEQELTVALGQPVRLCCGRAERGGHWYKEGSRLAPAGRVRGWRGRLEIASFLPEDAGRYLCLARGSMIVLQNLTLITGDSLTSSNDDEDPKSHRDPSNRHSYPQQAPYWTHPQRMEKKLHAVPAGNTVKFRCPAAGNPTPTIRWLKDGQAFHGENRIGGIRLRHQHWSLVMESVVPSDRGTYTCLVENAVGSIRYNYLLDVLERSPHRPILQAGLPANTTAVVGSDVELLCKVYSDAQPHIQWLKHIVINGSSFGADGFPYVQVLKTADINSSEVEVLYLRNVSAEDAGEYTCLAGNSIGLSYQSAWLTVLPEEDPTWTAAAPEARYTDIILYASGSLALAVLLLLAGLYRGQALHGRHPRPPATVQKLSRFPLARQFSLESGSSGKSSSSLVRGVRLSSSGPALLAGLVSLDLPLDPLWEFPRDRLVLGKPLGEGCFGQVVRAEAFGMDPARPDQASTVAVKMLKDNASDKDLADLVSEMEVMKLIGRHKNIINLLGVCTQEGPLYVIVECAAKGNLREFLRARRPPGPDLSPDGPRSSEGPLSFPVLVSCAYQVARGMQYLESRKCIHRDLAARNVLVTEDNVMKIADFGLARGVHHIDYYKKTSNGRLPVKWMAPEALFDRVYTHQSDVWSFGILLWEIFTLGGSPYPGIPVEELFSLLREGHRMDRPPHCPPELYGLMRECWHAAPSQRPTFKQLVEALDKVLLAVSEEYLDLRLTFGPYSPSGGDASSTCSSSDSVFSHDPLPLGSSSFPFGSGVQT
Method: FGFR4 protein kinase activity was determined using Caliper mobility shift assay. The compound was dissolved in DMSO and then diluted with kinase buffer, 5 μL of 5-fold final reaction concentration of compound (10% DMSO) was added to a 384-well plate. […] After incubation at 28° C. for 30-60 minutes, 25 μL of stop solution was added to stop the reaction. Conversion data was read on Caliper EZ Reader II (Caliper Life Sciences). The conversion rate was converted to inhibition rate (% inhibition=(max−sample conversion rate)/(max−min)*100), wherein max refers to the conversion rate of the DMSO control, and min refers to the conversion rate of enzyme-free control. Curve was plotted with compound concentration and inhibition rate on the horizontal and vertical coordinates respectively, and the curve was fitted and IC50 was calculated using XLFit excel add-in version 4.3.1 software.

[5] = most common drug-related adverse events
[6] = NU/NU mice, gavage qd 14 days, compound of formula (B) 5 mg/kg, lenvatinib mesylate 8 mg/kg, palbociclib 50 mg/kg
[7] = compound of formula (B) 5 mg/kg, lenvatinib mesylate 8 mg/kg
[8] = listed as compound of formula (B)

| SMILES | Change Rate in Weight (%) [1] | growth of xenograft tumor (tumor volume) versus vehicle, in words [1] | tumor growth (tumor weight) versus vehicle, in words [1] | TV(mm3) d16 [1] | T/C d16 (%) (relative tumor volume proliferation rate) [1] | TGI d16 (%) (tumor growth inhibition rate) [1] | Tumor Weight [1] | Tumor Weight Inhibition Rate (%) [1] | Number of Animals (Survived/Total) [4, 6] | growth of tumor (tumor weight) versus vehicle, in words [4] | growth of xenograft tumor (tumor volume) versus vehicle, in words [4] | TV (mm^3) d14 [4, 7] | TGI d14 (%) (tumor growth inhibition rate) [4, 7] | Tumor Weight [4, 7] | Tumor Weight Inhibition Rate (%) [4, 7] | Number of Animals (Survived/Total) [1] | T/C d14 (%) (relative tumor volume proliferation rate) [4, 7] | further results |
| --- | --- | --- | --- | --- | --- | --- | --- | --- | --- | --- | --- | --- | --- | --- | --- | --- | --- | --- |
| CNC(=O)c1cc(Oc2ccc(NC(=O)Nc3ccc(Cl)c(C(F)(F)F)c3)cc2)ccn1.Cc1ccc(S(=O)(=O)O)cc1 [Sorafenib Tosylate, 4-{4-[3-(4-chloro-3-trifluoromethyl-phenyl)-acylurea]-phenoxy}-pyridine-2-carboxylic acid methylamide-4-toluenesulfonate] | −17.5% | failed to inhibit the growth of xenograft tumor | failed to inhibit tumor growth | 717.2 ± 222.7 mm3 | 84.5% | 30.9% | 0.79 ± 0.23 g | 27.8% |  |  |  |  |  |  |  |  |  | T/C d16 (%) (relative tumor volume proliferation rate) ([1]; listed as sorafenib tosylate): 91.3%; TGI d16 (%) (tumor growth inhibition rate) ([1]; listed as sorafenib tosylate): 31.4%; Tumor Weight Inhibition Rate (%) ([1]; listed as sorafenib tosylate): 19.1% |
| CNC(=O)c1cc(Oc2ccc(NC(=O)Nc3ccc(Cl)c(C(F)(F)F)c3)cc2)ccn1 [sorafenib] |  |  |  |  |  |  |  |  |  |  |  |  |  |  |  |  |  | incidence of congestive heart failure [2]: 1.9%; incidence of CTC (version V2.0) Grade 3 drug-related adverse events [3]: 37%; incidence of CTC (version V2.0) Grade 4 drug-related adverse events [3]: 3%; diarrhea [3, 5]: 37%; hand and foot skin reactions [3, 5]: 35%; malaise [3, 5]: 33%; rash [3, 5]: 38% |
| COc1cc2nccc(Oc3ccc(NC(=O)NC4CC4)c(Cl)c3)c2cc1C(N)=O [Lenvatinib Mesylate, 4-[3-chloro-4-(N′-cyclopropylureido)phenoxy]-7-methoxyquinoline-6-carboxamide mesylate] |  |  |  |  |  |  |  |  | 7/7 | significantly inhibited the growth of the xenograft tumor | significantly inhibited the growth of the xenograft tumor | 533.1 ± 212.6** mm^3 | 57.4% | 0.5600 ± 0.1923 g | 58.0% |  |  |  |
| N#Cc1cnc(NC(=O)N2CCCc3cc(CN4CCN5CCC[C@H]5C4=O)c(C=O)nc32)cc1NC1CC1 [Compound of formula (B)] | −12.0% | can significantly inhibit the growth of the xenograft tumor | can significantly inhibit tumor growth | 608.1 ± 293.4 mm3 | 75.1% | 44.5% | 0.59 ± 0.34 g | 46.4% | 7/7 | significantly inhibited the growth of the xenograft tumor | significantly inhibited the growth of the xenograft tumor | 607.8 ± 277.1** mm^3 | 49.1% | 0.7481 ± 0.3692 g | 43.8% | 6/6 | 55.8% | T/C d16 (%) (relative tumor volume proliferation rate) [1, 8]: 84.5%; TGI d16 (%) (tumor growth inhibition rate) [1, 8]: 30.9%; tumor volume growth compared to model (vehicle) group at corresponding time points, in words ([1]; days as stated (d13-d16 alone; d3-d6, d10-d16 with sorafenib tosylate; d6-d16 with palbociclib)): can significantly inhibit tumor volume growth; Tumor Weight Inhibition Rate (%) [1, 8]: 27.8%; pIC50 (Huh-7 cells): > 8.00; pIC50 (FGFR4): > 8.30; Change Rate in Weight (%) [4, 6]: −4.5% |
| CC(=O)c1c(C)c2cnc(Nc3ccc(N4CCNCC4)cn3)nc2n(C2CCCC2)c1=O [Palbociclib, 6-acetyl-8-cyclopentyl-5-methyl-2-{[5-(piperazin-1-yl)pyridin-2-yl]amino}pyrido[2,3-d]pyrimidin-7 (8H)-one] | −24.7% | failed to inhibit the growth of xenograft tumor | failed to inhibit tumor growth | 711.6 ± 313.8 mm3 | 91.3% | 31.4% | 0.89 ± 0.30 g | 19.1% | 7/7 | did not inhibit the growth of tumor | failed to inhibit the growth of xenograft tumor | 948.8 ± 361.2 mm^3 | 11.0% | 1.3047 ± 0.4823 g | 2.1% | 6/6 | 95.8% | T/C d16 (%) (relative tumor volume proliferation rate) ([1]; listed as palbociclib): 75.1%; TGI d16 (%) (tumor growth inhibition rate) ([1]; listed as palbociclib): 44.5%; Tumor Weight Inhibition Rate (%) ([1]; listed as palbociclib): 46.4% |
